Consider two compounds from patent US10869864B2, “Combinations for the treatment of cancer” (IGNYTA, INC., priority 2015, dated 2020).

Series [1] relates to KM-12 TPM3-NTRK1 G595R cells. Put plainly: Tumor growth in athymic nu/nu mice implanted subcutaneously with KM-12 TPM3-NTRK1 G595R cells. The note with it: for Average tumor volume / Percent tumor growth inhibition (% TGI): entrectinib 60 mg/kg, trametinib 1 mg/kg, p.o. q.d. It is filed as in vivo. How it is done: Athymic nu/nu mice, 6-7 weeks old, female mice were implanted subcutaneously (right flank) with 2 million KM-12 TPM3-NTRK1 G595R cells/mouse. Animals were randomized once the mean tumor volume reached ˜150 mm^3.
Trametinib in vivo oral dosing solution was made by dissolving trametinib in a solution of DMSO (Lot #: SHBG1596V, D8418-100ML, Sigma), PEG 400 (Lot #: MKBX3961V, 202398-500G, Sigma), Tween 80 (Lot #: MKB58228V, P4780-100ML, Sigma) and water. The final concentration of trametinib was 0.1 mg/mL and the amounts of each component in the resulting solution were 3.3% DMSO, 16.7% PEG 400, 15% Tween 80 and 65% water, with the water being added just prior to dosing.
Athymic nu/nu female mice between 6-7 weeks of age were ordered from Charles River. Animals were allowed to acclimate 3 days prior to the start of the study (e.g., cell implantation). Animals were housed in irradiated, individual HEPA ventilated cages (Innocage® IVC, Innovive USA) on a 12-hour light-dark cycle at 68-79° F. and 30-70% humidity. Animals were provided with irradiated chow (Teklad 2920X) and acidified drinking water (Innovive) ad libitum as per the animal care and use protocol established at Explora Biolabs (Ignyta ACUP # EB15-050). Animals were identified by uniquely numbered ear-tags.
(§1) KM12 cells were cultured, harvested, and suspended in 1:1 FBS free culture media:martigel at a concentration of 10 million cells/mL. Cells were implanted under the skin on the right flank of each mouse on day 0. The implantation volume was 200 μL/mouse. Tumors grew until the mean tumor volume reached approximately 130 mm^3. On day 8 mice were randomized into 6 treatment groups (10 mice/group) and treatment began. […] The final treatment for all groups was administered on day 17, for a total of 10 doses. The final tumor and body weight measurements were taken on the final day of dosing, day 17.
(§2) Tumors measurements and body weights were collected 2×/week over the duration of the study. Tumor growth was assessed by caliper and tumor volumes were calculated using the equation (1). Animals with tumor volumes >2,000 mm^3 were removed from study. Volume (mm^3)=[length (mm)×width (mm)×width (mm)]/2 (1)
The percentage of tumor growth inhibition (% TGI) was calculated for each treatment group at each tumor measurement. The % TGI values were calculated using equation (2) below, where TVvehicle is the tumor volume for the vehicle-treated animals at a specified time point, TVinitial is the initial tumor volume at the start of the treatment and TVtreatment is the tumor volume of the treatment group at a specified end-point time. Differences in tumor volumes were assessed by ANOVA using GraphPad Prism (version 6.07, GraphPad Software, Inc.). % TGI=[(TVvehicle−TVtreatment)/(TVvehicle−TVinitial)]×100

Series [2] in a line: Tolerability, body weight and toxicity in the KM-12 TPM3-NTRK1 G595R mouse study. The settings on record: any animals receiving trametinib 1 mg/kg p.o. q.d. The procedure:
as §1, §2

The mark [3] stands for this setting: day 8 after cell implantation (randomization, treatment began).
Setting [4] is: day 8 after cell implantation (treatment began).
The mark [5] stands for this setting: day 17 after cell implantation (10 doses).
[6] abbreviates: day 17 after cell implantation (final day, 10 doses).

Each structure is given as a SMILES string.

Take `CC(=O)Nc1cccc(-n2c(=O)n(C3CC3)c(=O)c3c(Nc4ccc(I)cc4F)n(C)c(=O)c(C)c32)c1` [Trametinib]: the “tumor volume difference from vehicle, two-way ANOVA” value in series [1] (by day 14, p<0.05) is “significantly different from vehicle”. In addition, the Average tumor volume in series [1] (setting [3]) came out at 146.7 mm^3; in series [1] (day 11 after cell implantation), 254.8 mm^3; in series [1] (day 14 after cell implantation) it was 373.1 mm^3; in series [1] (setting [6]), 544.9 mm^3. Besides, the “Percent tumor growth inhibition (% TGI)” value in series [1] (setting [4]) is 100.0%; in series [1] (day 11 after cell implantation), 51.5%; in series [1] (day 14 after cell implantation), 70.0%; in series [1] (setting [5]), 76.7%. Besides, the “tumor volume difference from vehicle, one-way ANOVA” value in series [1] (days 14 and 17) is “Differences were found”. Further, in series [2], the “Toxicity (evaluated based on body weight loss)” value was “Toxicity was observed”.
Turning to `CN1CCN(c2ccc(C(=O)Nc3n[nH]c4ccc(Cc5cc(F)cc(F)c5)cc34)c(NC3CCOCC3)c2)CC1` [Entrectinib, N-[5-(3,5-difluorobenzyl)-1H-indazol-3-yl]-4-(4-methyl-piperazin-1-yl)-2-(tetrahydro-pyran-4-ylamino)-benzamide], the Average tumor volume is on record as 148.2 mm^3 in series [1] (setting [3]), 403.2 mm^3 in series [1] (day 11 after cell implantation), 934.5 mm^3 in series [1] (day 14 after cell implantation) and 2057.8 mm^3 in series [1] (setting [6]). For the same compound, the “Percent tumor growth inhibition (% TGI)” value in series [1] (setting [4]) is given as 100.0%; in series [1] (day 11 after cell implantation) it was −15.1%; in series [1] (day 14 after cell implantation) it was −4.5%; in series [1] (setting [5]) it was −11.6%.
